One assay deals with T1, human V-1 receptor (V1a) (Homo sapiens, UniProt P37288).
T1 construct: expressed in transfected cells; host or cells: HEK-293 (membranes)
In words: In vitro recombinant vasopressin receptor binding assay (3H-arginine vasopressin displacement), V1a. The following applies: 0.2 μM test compound, cloned human receptor membranes from HEK-293 cells; for inhibition at 0.2 µM: read-out: Binding V1a (% inhib @ 0.2 μM). As for the experimental part: (§1) Compounds were assessed for their ability to displace ^3H-arginine vasopressin from the human V-1 or V-2 receptor in HEK-293 cells. Assay buffer is 50 mM Tris-Cl, 5 mM MgCl2, 0.1% BSA (pH 7.5) containing 5 ug/ml of aprotinin, leupeptin, pepstatin, 50 ug/ml bacitracin, and 1 mM Pefabloc. ^3H-vasopressin is ^3H-arginine-8-vasopressin (68.5 Ci/mmol, final concentration in assay is 0.65-0.75 nM). Into wells of 96-well round bottom polypropylene plates were added buffer, test compound, membrane (containing cloned human V-1 or V-2 receptor), and ^3H-vasopressin. The reaction plates were allowed to sit at room temperature for one hour. The samples were filtered through Unifilter GF/C plates (presoaked in 0.3 polyethyleneimine). The plates were washed 5 times with cold physiological saline containing 0.05% Tween 20. After drying, the bottom of the filter plates were sealed and 0.025 ml of Microscint-20 was added to each filter. The top of the plate was sealed, and the plate was counted. Non-specific binding was determined by the addition of 1.25 uM arginine-8-vasopressin in those wells.

Assay [1] addresses T2, human V2 receptor (Homo sapiens, UniProt P30518).
T2 construct: expressed in transfected cells; host or cells: HEK-293
In words: Inhibition of AVP-induced cAMP accumulation in transfected HEK-293 cells expressing human V2 receptor. It is filed as cell-based. Conditions: AVP 1 nM, HEK-293 expressing human V2, read-out: Functional V2 (IC50; μM). As for the experimental part:
HEK-293 cells were grown in DMEM media supplemented with 10% FBS and glutamine (Gibco BRL, Grand Island, N.Y.). Once transfected, the cells were passed biweekly by trypsinization and seeded into 96 well plates at 33,000 cells per well. HEK-293 were transfected with human V1a, V1b or V2 DNA using DMRIE-C reagent from Life Technologies, Inc., Grand Island, N.Y. Cells were tested for their responsiveness to vasopressin 48 h after transfection. Stable lines were generated by selecting cells grown in culture media containing geneticin (500 μg/mL, Life Technologies).
The accumulation of cAMP was measured in transfected HEK-293 expressing the human V2 receptor. The cells were cultured 4-7 d in 96-well plates. On the day of testing in this assay, cells were washed twice in assay media (DMEM/F12 containing 0.1% BSA). The cells were treated with the test compound for 5 min and then given AVP (1 nM) in assay media containing 1 mM isobutylmethylxanthine. After 5 min, 0.5 N HCl was added to disrupt the cells and solubilize cAMP. The cAMP content of 20 μL of the cell lysate in each well was measured using cAMP Flashplates (NEN Life Sciences). Data are expressed as pmol cAMP/well. While the assay is optimized to detect and quantitate antagonistic activity, agonistic activity would also be apparent at the higher concentrations of test compounds.
The data from the cAMP accumulation and the calcium mobilization assays are expressed as IC50 values as determined from dose response curves.

Assay [2] addresses T2, human V2 receptor. In words: In vitro recombinant vasopressin receptor binding assay (3H-arginine vasopressin displacement), V2. The following applies: for IC50: cloned human receptor membranes from HEK-293 cells. As for the experimental part: as §1

The results in this text go back to patent US7763605B2, “[1,4]benzodiazepines as vasopressin V2 receptor antagonists” (Janssen Pharmaceutica, N.V., priority 2004, dated 2010).

Counter-ions that a name gives are not always drawn.

T2 sequence (P30518 whole entry): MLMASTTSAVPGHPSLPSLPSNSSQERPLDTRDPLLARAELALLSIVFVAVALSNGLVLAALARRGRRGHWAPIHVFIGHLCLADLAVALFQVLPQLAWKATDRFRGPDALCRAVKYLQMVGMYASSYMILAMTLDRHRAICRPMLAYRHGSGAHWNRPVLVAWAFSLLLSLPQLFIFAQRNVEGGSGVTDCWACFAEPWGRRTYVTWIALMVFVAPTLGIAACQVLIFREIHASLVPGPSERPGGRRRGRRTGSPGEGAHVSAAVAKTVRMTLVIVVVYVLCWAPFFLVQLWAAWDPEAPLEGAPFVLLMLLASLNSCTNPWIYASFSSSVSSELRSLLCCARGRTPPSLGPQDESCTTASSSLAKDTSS
T1 sequence (P37288 whole entry): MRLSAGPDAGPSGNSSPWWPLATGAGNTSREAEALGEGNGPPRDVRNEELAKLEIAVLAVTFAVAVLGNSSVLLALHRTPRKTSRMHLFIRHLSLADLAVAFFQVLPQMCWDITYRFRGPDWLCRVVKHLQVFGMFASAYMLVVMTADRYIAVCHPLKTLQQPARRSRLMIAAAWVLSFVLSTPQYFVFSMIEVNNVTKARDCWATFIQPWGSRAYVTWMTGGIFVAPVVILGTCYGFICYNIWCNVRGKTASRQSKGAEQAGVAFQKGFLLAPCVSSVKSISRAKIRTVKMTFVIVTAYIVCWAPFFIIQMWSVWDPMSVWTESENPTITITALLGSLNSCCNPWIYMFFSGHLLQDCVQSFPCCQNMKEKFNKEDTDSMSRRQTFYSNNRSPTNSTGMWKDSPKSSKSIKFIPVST

As a reminder, the IC50 is the concentration that gives 50% inhibition. For the compound `COC[C@@H]1CN(C(=O)c2ccc(NC(=O)c3ccccc3-c3ccccc3)cc2Cl)c2ccccc2CN1C` [Cpd 6, (S)-Biphenyl-2-carboxylic acid [3-chloro-4-(3-methoxymethyl-4-methyl-2,3,4,5-tetrahydrobenzo[e][1,4]diazepine-1-carbonyl)-phenyl]-amide trifluoroacetate], at human V-1 receptor (V1a), the inhibition at 0.2 µM came to 0%. In addition, the values for the half-inhibitory concentration (IC50) at human V2 receptor [1] and on human V2 receptor [2] were 0.025 µM and 0.066 µM, respectively.
The matching figures for `CS(=O)(=O)OC[C@@H]1CN(C(=O)c2ccc(NC(=O)c3ccccc3-c3ccccc3)cc2Cl)c2ccccc2CN1S(C)(=O)=O` [Cpd 8, (S)-methanesulfonic acid 1 {4-[(biphenyl-2-carbonyl)-amino]-2chloro-benzoyl}-4-methanesulfonyl-2,3,4,5-tetrahydro-1H-benzo[e][1,4]diazepin-3-ylmethyl ester]: 0%, 1.08 µM and 0.4 µM.
The matching figures for `O=C(Nc1ccc(C(=O)N2C[C@@H](CO)N(S(=O)(=O)c3ccccc3)Cc3ccccc32)c(Cl)c1)c1ccccc1-c1ccccc1` [Cpd 11, (S)-Biphenyl-2-carboxylic acid [4-(4-benzenesulfonyl-3-hydroxymethyl-2,3,4,5-tetrahydrobenzo[e][1,4]diazepine-1-carbonyl)-3-chloro-phenyl]-amide]: 0%, 0.773 µM and 0.23 µM.
In the case of “(S)-Biphenyl-2-carboxylic acid [3-chloro-4-(4-methyl-3-morpholino-4-ylmethyl-2,3,4,5-tetrahydrobenzo[e][1,4]diazepine-1-carbonyl)-phenyl]-amide ditrifluoroacetate [Cpd 5]”, the “Binding V1a (% inhib @ 0.2 μM)” value on human V-1 receptor (V1a) was found to be 0%.
For the compound `CC(=O)N1Cc2ccccc2N(C(=O)c2ccc(NC(=O)c3ccccc3-c3ccccc3)cc2Cl)C[C@H]1CO` [Cpd 12, (S)-Biphenyl-2-carboxylic acid [4-(4-acetyl-3-hydroxymethyl-2,3,4,5-tetrahydro-benzo[e][1,4]diazepine-1-carbonyl)-3-chloro-phenyl]-amide], on human V-1 receptor (V1a), the inhibition at 0.2 µM is 6%. Also, the IC50 at human V2 receptor [1] amounted to 0.02 µM; on human V2 receptor [2], 0.028 µM.
On the same counts, the results for `CCCS(=O)(=O)N1Cc2ccccc2N(C(=O)c2ccc(NC(=O)c3ccccc3-c3ccccc3)cc2Cl)C[C@H]1CO` [Cpd 10, (S)-Biphenyl-2-carboxylic acid {3-chloro-4-[3-hydroxymethyl-4-(propane-1-sulfonyl)-2,3,4,5-tetrahydrobenzo[e][1,4]diazepine-1-carbonyl]-phenyl}-amide] are 2%, 0.03 µM and 0.065 µM.
The matching figures for `CN1Cc2ccccc2N(C(=O)c2ccc(NC(=O)c3ccccc3-c3ccccc3)cc2Cl)C[C@@H]1CN1CCCC1` [Cpd 3, (S)-Biphenyl-2-carboxylic acid [3-chloro-4-(4-methyl-3-pyrrolidin-1-ylmethyl-2,3,4,5-tetrahydrobenzo[e][1,4]diazepine-1-carbonyl)-phenyl]-amide ditrifluoroacetate]: 0%, 0.71 µM and 0.34 µM.
In the case of `O=C(Nc1ccc(C(=O)N2C[C@@H](CO)N(Cc3ccccc3)Cc3ccccc32)c(Cl)c1)c1ccccc1-c1ccccc1` [Cpd 1, (S)-Biphenyl-2-carboxylic acid [4-(4-benzyl-3-hydroxymethyl-2,3,4,5-tetrahydro-benzo[e][1,4]diazepine-1-carbonyl)-3-chloro-phenyl]-amide], the inhibition at 0.2 µM on human V-1 receptor (V1a) stood at 1%. In addition, on human V2 receptor [2], the half-maximal inhibitory concentration (IC50) is 0.5 µM.
`CN1Cc2ccccc2N(C(=O)c2ccc(NC(=O)c3ccccc3-c3ccccc3)cc2Cl)C[C@H]1COC1CCCC1` [Cpd 4, (S)-Biphenyl-2-carboxylic acid [3-chloro-4-(3-cyclopentyloxymethyl-4-methyl-2,3,4,5-tetrahydrobenzo[e][1,4]diazepine-1-carbonyl)-phenyl]-amide trifluoroacetate]: the inhibition at 0.2 µM on human V-1 receptor (V1a) worked out at 0%; on human V2 receptor [2] (read-out: Binding V2 (% inhib @ 0.2 μM)), 22%. Also, at human V2 receptor [1], the half-inhibitory concentration (IC50) was greater than 10 µM.
Regarding `CSC[C@@H]1CN(C(=O)c2ccc(NC(=O)c3ccccc3-c3ccccc3)cc2Cl)c2ccccc2CN1C` [Cpd 2, (S)-Biphenyl-2-carboxylic acid [3-chloro-4-(4-methyl-3-methylsulfanylmethyl-2,3,4,5-tetrahydrobenzo[e][1,4]diazepine-1-carbonyl)-phenyl]-amide], at human V-1 receptor (V1a), the inhibition at 0.2 µM worked out at 0%. Further, the IC50 at human V2 receptor [1] came out at 0.28 µM; at human V2 receptor [2], 0.24 µM.
The matching figures for `CC(=O)OC[C@@H]1CN(C(=O)c2ccc(NC(=O)c3ccccc3-c3ccccc3)cc2Cl)c2ccccc2CN1C(C)=O` [Cpd 9, (S)-Acetic acid 4-acetyl-1-{4-[(biphenyl-2-carbonyl)-amino]-2-chloro-benzoyl}-2,3,4,5-tetrahydro-1H-benzo[e][1,4]diazepin-3-ylmethyl ester]: 2%, 0.04 µM and 0.045 µM.
As for `CS(=O)(=O)N1Cc2ccccc2N(C(=O)c2ccc(NC(=O)c3ccccc3-c3ccccc3)cc2Cl)C[C@H]1CO` [Cpd 7, (S)-Biphenyl-2-carboxylic acid [3-chloro-4-(3-hydroxymethyl-4-methanesulfonyl-2,3,4,5-tetrahydrobenzo[e][1,4]diazepine-1-carbonyl)-phenyl]-amide], the inhibition at 0.2 µM at human V-1 receptor (V1a) amounted to 4%. The IC50 at human V2 receptor [1] turned out to be 0.02 µM; at human V2 receptor [2], 0.05 µM.
